Laboratory results as given in patent US6613322B2, “Method for treating a subject suffering from conditions associated with an extracellular zinc sphingomyelinase” (The Trustees of Columbia University in the City of New York, priority 1997, dated 2003).

Tests used:
[1] = target: T1, S-SMase (Homo sapiens, UniProt P17405); assay: SMase assay of endothelial cell (HUVEC) conditioned medium; format: biochemical; design: endogenous in cells; host or cells: primary HUVEC, 24-h serum-free conditioned medium
T1 sequence (P17405 47-631): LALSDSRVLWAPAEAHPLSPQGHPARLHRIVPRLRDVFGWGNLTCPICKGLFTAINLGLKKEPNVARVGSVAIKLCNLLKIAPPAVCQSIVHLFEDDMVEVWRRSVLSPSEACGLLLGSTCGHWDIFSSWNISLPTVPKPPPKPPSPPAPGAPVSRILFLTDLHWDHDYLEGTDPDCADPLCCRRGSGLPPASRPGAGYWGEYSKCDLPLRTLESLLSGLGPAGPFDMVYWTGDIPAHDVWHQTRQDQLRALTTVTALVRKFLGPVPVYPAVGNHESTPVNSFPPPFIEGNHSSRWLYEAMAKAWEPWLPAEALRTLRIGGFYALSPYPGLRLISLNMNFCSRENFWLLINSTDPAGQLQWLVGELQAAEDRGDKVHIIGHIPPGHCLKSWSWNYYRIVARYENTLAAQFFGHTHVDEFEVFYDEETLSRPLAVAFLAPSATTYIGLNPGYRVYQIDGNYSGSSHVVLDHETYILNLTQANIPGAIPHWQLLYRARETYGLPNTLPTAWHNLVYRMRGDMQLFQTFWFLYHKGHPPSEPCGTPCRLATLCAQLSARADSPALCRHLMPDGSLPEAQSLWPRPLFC
Description: FIGS. 20A-B. Cultured human endothelial cells secrete abundant amounts of S-SMase.
Smase Assay—As previously described (15), the standard 200-μl assay mixture consisted of up to 40 μl of sample (conditioned media or homogenized cells; see above, and a volume of assay buffer (0.1 M sodium acetate, pH 5.0) to bring the volume to 160 μl. The reaction was initiated by the addition of 40 μl substrate (50 pmol [^3H]sphingomyelin) in 0.25 M sucrose containing 3% Triton X-100 (final concentration of Triton X-100 in the 200-μl assay mix=0.6%). When added, the final concentrations of EDTA and Zn^2+ were 5 mM and 0.1 mM, respectively, unless indicated otherwise. The assay mixtures were incubated at 37° C. for no longer than 3 h and then extracted by the method of Bligh and Dyer (37); the lower, organic phase was harvested, evaporated under N2, and fractionated by TLC using chloroform:methanol (95:5). The ceramide spots were scraped and directly counted to quantify [^3H]ceramide. Typically, our assay reactions contained approximately 20 μg of cellular homogenate protein and a volume of conditioned media derived from a quantity of cells equivalent to approximately 50 μg of cellular protein.

[2] = target: T2, internalized S-SMase (Homo sapiens, UniProt P17405); assay: SMase activity in homogenates of type A Niemann-Pick fibroblasts after internalization of FLAG-tagged S-SMase; format: biochemical; conditions: 0.1 mM ZnCl2, sonicated cell homogenates
T2 construct: FLAG; purchased AMGEN, Boulder, Colo
T2 sequence (P17405 47-631): T1 sequence (P17405 47-631)
Description: FIG. 17. Zn^2+-dependency of S-SMase after internalization by type A Niemann-Pick cells. Skin fibroblasts from a patient with type A Niemann-Pick disease (NP-A Cells) were grown to 90% confluency in medium supplemented with 10% HI-FBS. The cells were then washed three times with PBS and incubated in serum-free media containing 0.2% BSA and 850 ng immunoaffinity-isolated FLAG-tagged S-SMase (Purified S-SMase)/ml at 37° C. for 16 h. The cell homogenate and incubation medium were then prepared as described in “Experimental Procedures”, and aliquots were assayed for SMase activity in the presence of either 5 mM EDTA (hatched bars) or 0.1 mM ZnCl2 (solid bars) for 2 h at 37° C. at pH 5.0. […]
SMase Assay—As previously described (Schissel et al., 1996), the standard 200-μl assay mixture consisted of up to 40 μl of sample (conditioned media or homogenized cells; see above) and a volume of assay buffer (0.1 M sodium acetate, pH 5.0) to bring the volume to 160 μl. […] The ceramide spots were scraped and directly counted to quantify [^3H]ceramide. Typically, the assay reactions contained approximately 20 μg of cellular homogenate protein and a volume of conditioned media derived from a quantity of cells equivalent to approximately 50 μg of cellular protein. […]

[3] = tested on: HUVECs; assay: LDH release from HUVECs; format: cell-based, human; conditions: IL-1β 5 ng/ml, 18 h
Description: HUVECs were incubated for 18 h in DMEM, 0.2% BSA alone (Con) or containing human recombinant interleukin-1β (5 ng/ml) (IL1β). Conditioned media from these cells were then assayed for SMase activity (FIG. 25A) and LDH activity (FIG. 25B).
LDH Assay—LDH activity was assayed in medium and cells as reported previously (42) using a kit purchased from Sigma (catalogue #500); the assay measures the unreacted pyruvic acid using a colorometric assay.

[4] = tested on: S-SMase secretion by HUVECs; assay: Cytokine regulation of S-SMase secretion by HUVECs (SMase activity in conditioned media); format: cell-based, human; conditions: 18 h, IL-1β 5 ng/ml, interferon-γ 1000 units/ml
Description: Conditioned media (FIG. 23A) and cell homogenates (FIG. 23B) from these cells were then assayed for SMase activity in the presence or absence of 0.1 mM ZnCl2, respectively.
The cells were then washed 3 times with PBS and incubated for 24 h in 1 ml fresh serum-free media containing 0.2%6 BSA. This 24-h conditioned medium was collected for SMase assays.
Harvesting of Cells and Conditioned Media—Following the incubations described above and in the figure legends, cells were placed on ice and the serum-free conditioned media was removed. The cells were washed two times with ice-cold 0.25 M sucrose and scraped into 0.3 ml and 3.0 ml of this sucrose solution per 35-mm and 100-mm dishes, respectively. Unless indicated otherwise, the scraped cells were disrupted by sonication on ice using three 5-second bursts (Branson 450 Sonifier), and the cellular homogenates were assayed for total protein by the method of Lowry et al. (22) and for SMase activity as described below. The conditioned media were spun at 800×g for 5 min to pellet any contaminating cells and concentrated six-fold using a Centriprep 30 (Amicon; Beverly, Mass.) concentrator (molecular weight cut off=30,000).

Row | stimulation of SMase secreted by endothelial cells by exogenous Zn2+ [1] | increase of enzymatic activity of S-SMase by Zn2+ ([1]; S-SMase from IL-1β-treated HUVECs) [fold] | increase of enzymatic activity of S-SMase by Zn2+ ([1]; S-SMase from untreated HUVECs) [fold] | effect of added Zn2+ on cellular enzymatic activity [2] | Molecule | increase in LDH release [3] [%] | increase of S-SMase activity / secretion (conditioned media) [4] [fold]
1 | two-fold | 1.77±0.03 | 1.78±0.17 | failed to increase | [Cl-].[Cl-].[Zn+2] [Zn^2+, ZnCl2] |  | 
2 |  |  |  |  | IL-1β: human recombinant interleukin-1β | 60 | ~3
